Earlier results in PMC6768323, “Adverse Maternal, Fetal, and Postnatal Effects of Hexafluoropropylene Oxide Dimer Acid (GenX) from Oral Gestational Exposure in Sprague-Dawley Rats” (Environmental Health Perspectives, 2019).
Where two headings read alike, the source gives them in different places.

Tested on: rat
Details: cited from earlier work

For `O=S(=O)(O)C(F)(F)C(F)(F)C(F)(F)C(F)(F)C(F)(F)C(F)(F)C(F)(F)C(F)(F)F` [PFOS, perfluorooctane sulfonate], the “dose with increased neonatal mortality” value (ref Lau et al. 2003) is listed as ≥ 3 mg/kg, the “dose with lower pup body weights” value (ref Lau et al. 2003) is listed as ≥ 2 mg/kg and the “dose with neonatal mortality” value (ref Luebker et al. 2005a, 2005b) is listed as ≥ 1.6 mg/kg. The “dose with lower pup body weights” value (ref Luebker et al. 2005b) was ≥ 0.4 mg/kg.
